In paper PMC13195669, “GPR3 Ligands Discovered through Combined Virtual and Conformational Biosensor-Based Screening” (Journal of the American Chemical Society, 2026):

Target: T1, cannabinoid receptor 1 (CB1R) (Homo sapiens, UniProt P21554)
T1 construct: expressed in transfected cells; host or cells: HEK293A, transient
Assay: cAMP GloSensor 22F, agonist-stimulated CB1R
Assay type: cell-based
Conditions: preincubation with 100 μM or 10 μM; 10 µM forskolin
Description: Next, we used the classical cAMP GloSensor technology to assess the target selectivity profile of 33. […] In addition, we tested the effects of 33 on cAMP changes mediated by agonist-stimulated GPCRs phylogenetically close to GPR3 and coupling to Gs or Gi/o proteins.
BRET-based GPCR conformational sensor experiments
Cells expressing the conformational GPCR biosensors were grown for 24 h (stable cells) or 48 h (transiently transfected cells) in white 96-well plates and washed with 100 µl of HBSS. After washing, cells were incubated for 2 minutes with a 1/1000 solution of the furimazine stock solution (Promega; cat. no. N1662). Three baseline BRET reads were recorded and averaged prior to the addition of serial dilutions of ligands or veh icle control and subsequent BRET reads. […] BRE T donor emission was quantified with a 470/80 nm monochromator. […] Experiments were carried out using a CLARIOstar plate reader.
FRET- and BRET-based measurements of cAMP levels and Gs dissociation/reassociation Transfected cells grown in black 96-well plates were washed twice with 100 µl of HBSS 48 h after transfection and incubated with HBSS. […] Three baseline FRET/BRET reads were recorded and averaged prior to the addition of serial dilutions of ligands or vehicle control and sub-sequent FRET/BRET reads. […] FRET donor emission was quantified with a 480/10 nm filter. […]
Luminescence measurement using the cAMP GloSensor™ 22F […]

T1 sequence (P21554 whole entry, species assumed): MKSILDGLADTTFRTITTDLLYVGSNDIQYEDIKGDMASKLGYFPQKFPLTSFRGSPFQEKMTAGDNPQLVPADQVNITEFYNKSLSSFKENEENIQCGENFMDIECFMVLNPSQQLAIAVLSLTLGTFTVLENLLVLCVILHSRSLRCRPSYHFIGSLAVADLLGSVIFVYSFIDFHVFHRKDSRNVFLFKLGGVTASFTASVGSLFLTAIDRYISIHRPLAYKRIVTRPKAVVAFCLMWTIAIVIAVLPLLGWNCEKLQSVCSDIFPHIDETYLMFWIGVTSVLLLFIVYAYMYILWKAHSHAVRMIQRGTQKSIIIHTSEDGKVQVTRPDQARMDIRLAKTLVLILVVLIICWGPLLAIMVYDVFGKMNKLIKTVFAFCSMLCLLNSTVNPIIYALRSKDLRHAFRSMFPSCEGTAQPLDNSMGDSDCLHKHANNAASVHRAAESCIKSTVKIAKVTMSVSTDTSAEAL

For `N=c1n(Cc2ccccc2)c2ccccc2n1CC1CC1` [compound 33], which “effect on agonist-induced cAMP change mediated by CB1R” value is on record?
The value was “neither 100 μM nor 10 μM 33 significantly altered”.
